Data set [1] concerns Staphylococcus aureus NCTC 13373 (mecA-positive; methicillin-resistant). Nature of the data set: In vitro antibacterial activity, MIC (UCL School of Pharmacy assay), MRSA. The data set is classed as cell-based. The conditions noted are these: Staphylococcus aureus, UCL; read-out: MRSA MIC (UCL). An outline of the steps:
(§1)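 Strains: MRSA NCTC 13373, MSSA ATCC 25923, vanA E. faecalis ATCC 51299. Overnight agar growth suspended in PBS, A600 0.1, diluted 1:100 into isosensitest broth; 2-fold compound dilutions 32–0.03 μg/mL, ≤2% DMSO. Vancomycin QC.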

Data set [2] relates to Enterococcus faecalis ATCC 51299 (vanA-positive; vancomycin-resistant). Nature of the data set: In vitro antibacterial activity, MIC (UCL), VRE. The data set is classed as cell-based. The note with it: read-out: VRE MIC (UCL). An outline of the steps: as §1
The next data set is described as follows: Aqueous solubility. The data set is classed as physicochemical. The conditions noted are these: NEU; for solubility: thermodynamic from solid, read-out: Aqueous Solubility (NEU). From the text: To guide our initial SAR exploration work, we obtained liver microsomal intrinsic clearance data for 5 of the 18 compounds assayed by CO-ADD (Supporting Information - CDCO Report and Supporting Information - Biology). We then acquired intrinsic clearance (CLint), plasma protein binding (PPB), and solubility data on further compounds throughout the SAR campaign (Supporting Information - Biology, Tables S3 and S4). […] The more polar compounds (lower LogD) had reduced PPB and were more metabolically stable.
(§2) Table S4. ADME and Pharmacokinetics: compounds only appearing in the Supplementary […]
(§3) MRSA Aqueous HLM CLint Rat Hep CLint
(§4) Cmpd MIC Solubility Human PPB (%) (µL/min/mg (µL/min/10x6 LogD7.4
(§5) (µg/mL) (µM) protein) cells)
(§6) ADME and toxicity for compounds were measured according to procedures outlined in the manuscript submitted in parallel to this one;2 other procedures were used for those compounds analysed by Monash University (in vitro ADME) or UCL (toxicity), both described in the main

A short description of data set [3]: Human plasma protein binding (PPB). The data set is classed as in vitro ADME. The conditions noted are these: human, plasma, human plasma, NEU; read-out: Human PPB (NEU) (converted).
Text: (§7) To guide our initial SAR exploration work, we obtained liver microsomal intrinsic clearance data for 5 of the 18 compounds assayed by CO-ADD (Supporting Information - CDCO Report and Supporting Information - Biology). We then acquired intrinsic clearance (CLint), plasma protein binding (PPB), and solubility data on further compounds throughout the SAR campaign (Supporting Information - Biology, Tables S3 and S4).
as §2, §3, §4, §5, §6

The nature of data set [4]: Human liver microsome intrinsic clearance. The data set is classed as in vitro ADME. The note with it: human liver microsomes, NEU.
Text: as §7, §2, §3, §4, §5, §6
(In general: Liver microsomes are a subcellular fraction often used to study metabolism.)

Data set [5] is described as follows: Rat hepatocyte intrinsic clearance. The data set is classed as in vitro ADME. The conditions noted are these: rat hepatocytes, NEU.
Text: as §7, §2, §3, §4, §5, §6

Data set [6] concerns MRC-5SV2 (human lung fibroblast cell line). Kind of data set: Toxicity against MRC-5SV2. The data set is classed as cell-based. The conditions noted are these: MRC5 cells. As to the method:
as §6

Data set [7] deals with PMM (primary mouse macrophages). Kind of data set: Toxicity against PMM. The conditions noted are these: PMM. The data set is classed as cell-based. As to the method: as §6

The values below come from article PMC10714399, “Open Source Antibiotics: Simple Diarylimidazoles Are Potent against Methicillin-Resistant Staphylococcus aureus” (ACS Infectious Diseases, 2023).

Each structure is given as a SMILES string. Converted amounts (≈) assume the structure as drawn.

For orientation: MIC means the least concentration at which growth counts as inhibited. Turning to `CS(=O)(=O)c1ccc(-c2c(-c3ccccn3)nc3n2CCC3)cc1` [OSA_000837], the MIC in data set [1] and in data set [2] was above 32 µg/mL in each case. The “Aqueous Solubility (NEU)” value in the data set “Aqueous solubility” was determined as 317 µM. For the same compound, the fraction unbound in data set [3] was 0.4. In addition, the “HLM CLint (NEU)” value in data set [4] is reported as below 3 uL/min/mg protein. Also, the “Rat Hep CLint (NEU)” value in data set [5] is recorded as below 1 uL/min/10x6 cells.

Turning to `C[S+]([O-])c1ccc(-c2c(-c3ccccn3)nc3n2CCC3)cc1` (stereo not shown) [OSA_000838], the MIC in data set [1] and in data set [2] was above 32 µg/mL throughout. Besides, the “Aqueous Solubility (NEU)” value in the data set “Aqueous solubility” is 756 µM. In data set [3], the fraction unbound was 0.45. For the same compound, the “HLM CLint (NEU)” value in data set [4] was below 3 uL/min/mg protein. In data set [5], the “Rat Hep CLint (NEU)” value is on record as below 1 uL/min/10x6 cells.

For orientation: solubility means the concentration that dissolves in the medium under given conditions. On to `N#Cc1cccc(-c2c(-c3ccccn3)nc3n2CCC3)c1` [OSA_000864], for which the MIC in data set [1] and in data set [2] was above 32 µg/mL each time. In addition, the solubility in the data set “Aqueous solubility” is 37 µM (≈ 10.6 µg/mL). In addition, the fraction unbound in data set [3] was 0.24. The “HLM CLint (NEU)” value in data set [4] came to 43.7 uL/min/mg protein. Besides, the “Rat Hep CLint (NEU)” value in data set [5] was found to be 23.2 uL/min/10x6 cells.

`FC(F)(F)Oc1ccc(-c2c(-c3ccccn3)nc3n2CCC3)cc1` [OSA_000868]: the MIC is 8 µg/mL (≈ 23.2 µM) in data set [1] and 32 µg/mL (≈ 92.7 µM) in data set [2]. Moreover, in “Aqueous solubility”, the solubility is 38 µM (≈ 13.1 µg/mL). In data set [3], the fraction unbound was 0.044. The “HLM CLint (NEU)” value in data set [4] was 62.2 uL/min/mg protein. Besides, in data set [5], the “Rat Hep CLint (NEU)” value came to 54.1 uL/min/10x6 cells.

Regarding `Clc1ccc(-c2c(-c3ccccn3)nc3n2CCC3)cc1` [OSA_000875], the MIC in data set [1] stood at 4 µg/mL (≈ 13.5 µM); in data set [2], 16 µg/mL (≈ 54.1 µM). For the same compound, the solubility in the data set “Aqueous solubility” came out at 4 µM (≈ 1.18 µg/mL). Moreover, the fraction unbound in data set [3] is 0.033. For the same compound, in data set [4] (read-out: HLM CLint (NEU)), the microsomal CLint worked out at 168 µL/min/mg. Further, the “Rat Hep CLint (NEU)” value in data set [5] worked out at 21.9 uL/min/10x6 cells. Besides, the “MRC5 TC50” value in data set [6] was found to be 5.45 µM. Besides, in data set [7], the “PMM TC50” value turned out to be 8 µM.

Turning to `Clc1ccc(-c2c(-c3ccccn3)nc3n2CCC3)cc1Cl` [OSA_000876], the MIC in data set [1] and in data set [2] was 8 µg/mL (≈ 24.2 µM) in each case. In addition, the solubility in “Aqueous solubility” is 3 µM (≈ 0.991 µg/mL). Besides, the fraction unbound in data set [3] was 0.015. Further, the “HLM CLint (NEU)” value in data set [4] is listed as 100 uL/min/mg protein. The “Rat Hep CLint (NEU)” value in data set [5] was found to be 37.7 uL/min/10x6 cells.

As to `CN(C)C(=O)c1ccc(-c2c(-c3ccccn3)nc3n2CCC3)cc1` [OSA_000974], the MIC in data set [1] and in data set [2] was above 32 µg/mL in each case. In the data set “Aqueous solubility”, the “Aqueous Solubility (NEU)” value is 782 µM. Moreover, the fraction unbound in data set [3] is 0.55. In addition, the “HLM CLint (NEU)” value in data set [4] is listed as below 3 uL/min/mg protein. Also, in data set [5], the “Rat Hep CLint (NEU)” value is reported as below 1 uL/min/10x6 cells.

With `N#Cc1ccc(-c2c(-c3ccccn3)nc3n2CCC3)cc1` [OSA_000975], the MIC came to 4 µg/mL (≈ 14 µM) in data set [1] and 16 µg/mL (≈ 55.9 µM) in data set [2]. Moreover, the “Aqueous Solubility (NEU)” value in the data set “Aqueous solubility” was determined as 38 µM. The fraction unbound in data set [3] was 0.29. Also, the “HLM CLint (NEU)” value in data set [4] is 99.1 uL/min/mg protein. In data set [5], the “Rat Hep CLint (NEU)” value amounted to 7.99 uL/min/10x6 cells. The “MRC5 TC50” value in data set [6] came out at 25.9 µM. Also, the “PMM TC50” value in data set [7] was determined as 64 µM.

Regarding `Cc1cccc(-c2c(-c3ccccn3)nc3n2CCC3)c1` [OSA_000976], the MIC came to 8 µg/mL (≈ 29.1 µM) in data set [1] and 32 µg/mL (≈ 116 µM) in data set [2]. Further, in “Aqueous solubility”, the solubility was found to be 556 µM (≈ 153 µg/mL). The fraction unbound in data set [3] is 0.061. Further, in data set [4], the “HLM CLint (NEU)” value came to 76.1 uL/min/mg protein. Moreover, the “Rat Hep CLint (NEU)” value in data set [5] was 62.5 uL/min/10x6 cells.
